# Source: the supplement of paper PMC10307832
# Columns and labels:
# Assay in all cases: relative viability (nuclei count vs DMSO), 5 days (fraction); higher = more cells survive
# JZL-184 + Bortezomib = compound: C1CN(CCC1C(C2=CC3=C(C=C2)OCO3)(C4=CC5=C(C=C4)OCO5)O)C(=O)OC6=CC=C(C=C6)[N+](=O)[O-] [JZL-184] + CC(C)C[C@H](NC(=O)[C@H](Cc1ccccc1)NC(=O)c1cnccn1)B(O)O [Bortezomib] (partner 0.002 µM)
# Outline: (§1)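 Values are medians from duplicate plates. Each reflects relative viability, defined as the nuclei count of treated wells over that of vehicle wells. Lung cancer cell lines in 1536-well plates were pin-tool dosed one day after seeding with one drug alone or with a fixed anchor-drug dose plus five library-drug doses (not always all listed) in √10 steps, then fixed, stained and imaged at 4× after 5 days.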
# JZL-184 + OSI-027 = compound: C1CN(CCC1C(C2=CC3=C(C=C2)OCO3)(C4=CC5=C(C=C4)OCO5)O)C(=O)OC6=CC=C(C=C6)[N+](=O)[O-] [JZL-184] + COc1cccc2cc(-c3nc([C@H]4CC[C@H](C(=O)O)CC4)n4ncnc(N)c34)[nH]c12 [OSI-027] (partner 0.5 µM)
# Outline: as §1
# JZL-184 + Crizotinib = compound: C1CN(CCC1C(C2=CC3=C(C=C2)OCO3)(C4=CC5=C(C=C4)OCO5)O)C(=O)OC6=CC=C(C=C6)[N+](=O)[O-] [JZL-184] + C[C@@H](Oc1cc(-c2cnn(C3CCNCC3)c2)cnc1N)c1c(Cl)ccc(F)c1Cl [Crizotinib] (partner 1 µM)
# Outline: as §1
# JZL-184 + Decitabine = compound: C1CN(CCC1C(C2=CC3=C(C=C2)OCO3)(C4=CC5=C(C=C4)OCO5)O)C(=O)OC6=CC=C(C=C6)[N+](=O)[O-] [JZL-184] + Nc1ncn([C@H]2C[C@H](O)[C@@H](CO)O2)c(=O)n1 [Decitabine] (partner 2 µM)
# Outline: as §1
# JZL-184 + Pemetrexed = compound: C1CN(CCC1C(C2=CC3=C(C=C2)OCO3)(C4=CC5=C(C=C4)OCO5)O)C(=O)OC6=CC=C(C=C6)[N+](=O)[O-] [JZL-184] + Nc1nc2[nH]cc(CCc3ccc(C(=O)N[C@@H](CCC(=O)O)C(=O)O)cc3)c2c(=O)[nH]1 [Pemetrexed] (partner 0.2 µM)
# Outline: as §1
Cell Line,relative viability (JZL-184 + Bortezomib; first compound 0.04 µM),relative viability (JZL-184 + Bortezomib; first compound 0.4 µM),relative viability (JZL-184 + Bortezomib; first compound 1.265 µM),relative viability (JZL-184 + Bortezomib; first compound 4 µM),relative viability (JZL-184 + OSI-027; first compound 0.04 µM),relative viability (JZL-184 + OSI-027; first compound 0.4 µM),relative viability (JZL-184 + OSI-027; first compound 1.265 µM),relative viability (JZL-184 + OSI-027; first compound 4 µM),relative viability (JZL-184 + Crizotinib; first compound 0.04 µM),relative viability (JZL-184 + Crizotinib; first compound 0.4 µM),relative viability (JZL-184 + Crizotinib; first compound 1.265 µM),relative viability (JZL-184 + Crizotinib; first compound 4 µM),relative viability (JZL-184 + Decitabine; first compound 0.04 µM),relative viability (JZL-184 + Decitabine; first compound 0.4 µM),relative viability (JZL-184 + Decitabine; first compound 1.265 µM),relative viability (JZL-184 + Decitabine; first compound 4 µM),relative viability (JZL-184 + Pemetrexed; first compound 0.04 µM),relative viability (JZL-184 + Pemetrexed; first compound 0.4 µM),relative viability (JZL-184 + Pemetrexed; first compound 1.265 µM),relative viability (JZL-184 + Pemetrexed; first compound 4 µM)
NCI-H727,0.988,0.689,0.797,0.802,0.665,0.592,0.591,0.582,0.876,0.728,0.903,0.864,0.928,0.663,0.626,1.13,–,–,–,–
NCI-H1395,–,–,–,–,0.623,0.519,0.69,0.581,–,–,–,–,0.756,0.656,0.792,0.64,0.785,0.948,0.985,0.75
NCI-H1563,0.79,0.797,0.86,0.933,0.794,0.729,0.776,0.7,0.931,0.903,0.868,0.88,–,–,–,–,0.851,0.776,0.821,0.739
NCI-H1703,0.349,0.213,0.359,0.467,–,–,–,–,0.865,0.554,0.726,0.508,–,–,–,–,–,–,–,–
NCI-H1793,–,–,–,–,0.26,0.263,0.319,0.259,–,–,–,–,0.533,0.441,0.507,0.462,0.936,0.801,0.982,0.735
NCI-H1944,–,–,–,–,0.421,0.397,0.448,0.412,1.27,1.04,1.12,1.04,0.451,0.416,0.407,0.391,0.587,0.53,0.72,0.567
NCI-H2170,–,–,–,–,0.721,0.758,0.759,0.682,1.38,1.17,1.27,1.17,0.497,0.475,0.473,0.476,0.267,0.258,0.252,0.286
NCI-H2228,1.1,1.01,0.995,0.835,0.643,0.51,0.613,0.632,0.543,0.442,0.517,0.511,–,–,–,–,0.397,0.336,0.38,0.337
NCI-H2342,–,–,–,–,0.614,0.548,0.617,0.704,–,–,–,–,0.736,0.691,0.716,0.817,0.654,0.732,0.78,0.778
SK-MES-1,–,–,–,–,0.597,0.625,0.673,0.535,1.03,0.867,1.01,0.924,0.448,0.381,0.405,0.403,0.9,0.872,1,0.907
SW 900,–,–,–,–,0.596,0.536,0.566,0.5,–,–,–,–,0.465,0.416,0.465,0.451,0.496,0.482,0.537,0.491
